Like-named read-outs stand apart in the source and are kept apart here.
Tests used:
SK-MEL-25 = assay: Melanoma cytotoxicity assay (resazurin); format: cell-based; conditions: SK-MEL-25 melanoma cells, 24 hours with compound, resazurin; concentration not given
Method in brief: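 Viability read by resazurin fluorescence (ex 544, em 590 nm) after 6 h, following 24 h compound exposure of cells plated 24 h earlier (~4000/well). Triplicate means, minus medium blank, divided by DMSO control; IC50 derived from sigmoidal dose-response curves.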

[1] = tested on: 60 different human tumor cell lines
glioblastoma (SF-295) = assay: NCI 60 five dose screen; conditions: SF-295 (CNS Cancer), five dose
[2] = 786-0 (Renal Cancer), five dose
[3] = A549/ATCC (Non-small Cell Lung Cancer), five dose
[4] = BT-549 (Breast Cancer), five dose
[5] = CAKI-1 (Renal Cancer), five dose
[6] = COLO 205 (Colon Cancer), five dose
[7] = DU-145 (Prostate Cancer), five dose
[8] = HCC-2998 (Colon Cancer), five dose
[9] = HCT-116 (Colon Cancer), five dose
[10] = HL-60(TB) (Leukemia), five dose
[11] = HOP-62 (Non-small Cell Lung Cancer), five dose
[12] = HOP-92 (Non-small Cell Lung Cancer), five dose
[13] = HS 578T (Breast Cancer), five dose
[14] = IGROV1 (Ovarian Cancer), five dose
[15] = MCF7 (Breast Cancer), five dose
[16] = MDA-MB-231/ATCC (Breast Cancer), five dose
[17] = MDA-MB-435 (Melanoma), five dose
[18] = MDA-MB-468 (Breast Cancer), five dose
[19] = NCI-H23 (Non-small Cell Lung Cancer), five dose
[20] = NCI-H322M (Non-small Cell Lung Cancer), five dose
[21] = NCI-H460 (Non-small Cell Lung Cancer), five dose
[22] = NCI-H522 (Non-small Cell Lung Cancer), five dose
[23] = NCI/ADR-RES (Ovarian Cancer), five dose
[24] = OVCAR-3 (Ovarian Cancer), five dose
[25] = OVCAR-4 (Ovarian Cancer), five dose
[26] = OVCAR-5 (Ovarian Cancer), five dose
[27] = OVCAR-8 (Ovarian Cancer), five dose
[28] = PC-3 (Prostate Cancer), five dose
[29] = RXF 393 (Renal Cancer), five dose
[30] = SK-MEL-28 (Melanoma), five dose
[31] = SK-OV-3 (Ovarian Cancer), five dose
[32] = SN12C (Renal Cancer), five dose
[33] = T-47D (Breast Cancer), five dose
[34] = TK-10 (Renal Cancer), five dose
[35] = UO-31 (Renal Cancer), five dose

(1S,2R,13R,14S,18S)-7-(2,4-dimethylanilino)-2,18-dimethyl-6-thia-8-azapentacyclo[11.7.0.02,10.05,9.014,18]icosa-5(9),7,10-trien-17-one [IIa.14]
SK-MEL-25 (% inhibition) (SK-MEL-25): 15%
CC50 [1]: > 100000 nM
GI50 [1, 2]: 1620 nM
TGI [1, 2]: 3.07E−6
GI50 ([1]; A498 (Renal Cancer), five dose): 2540 nM
GI50 [1, 3]: 3500 nM
TGI [1, 3]: >1.00E−4
GI50 ([1]; ACHN (Renal Cancer), five dose): 2080 nM
TGI ([1]; ACHN (Renal Cancer), five dose): 4.53E−6
GI50 [1, 4]: 1490 nM
TGI [1, 4]: 2.94E−6
GI50 [1, 5]: 2830 nM
TGI [1, 5]: >1.00E−4
GI50 ([1]; CCRF-CEM (Leukemia), five dose): 2450 nM
TGI ([1]; CCRF-CEM (Leukemia), five dose): >1.00E−4
GI50 [1, 6]: 2500 nM
TGI [1, 6]: 6.54E−6
GI50 [1, 7]: 2040 nM
TGI [1, 7]: 5.18E−6
GI50 ([1]; EKVX (Non-small Cell Lung Cancer), five dose): 2130 nM
GI50 [1, 8]: 1900 nM
TGI [1, 8]: 3.74E−6
GI50 ([1]; HCT-15 (Colon Cancer), five dose): 2680 nM
GI50 [1, 9]: 1490 nM
TGI [1, 9]: 2.85E−6
GI50 [1, 10]: 2470 nM
TGI [1, 10]: 6.03E−6
GI50 [1, 11]: 2430 nM
TGI [1, 11]: 6.92E−6
GI50 [1, 12]: 1720 nM
TGI [1, 12]: 3.86E−6
GI50 [1, 13]: 3750 nM
TGI [1, 13]: >1.00E−4
GI50 ([1]; HT29 (Colon Cancer), five dose): 2550 nM
TGI ([1]; HT29 (Colon Cancer), five dose): 7.04E−6
GI50 [1, 14]: 2110 nM
TGI [1, 14]: 5.14E−6
GI50 ([1]; K-562 (Leukemia), five dose): 2860 nM
TGI ([1]; K-562 (Leukemia), five dose): >1.00E−4
GI50 ([1]; KM12 (Colon Cancer), five dose): 2780 nM
GI50 ([1]; LOX IMVI (Melanoma), five dose): 1640 nM
TGI ([1]; LOX IMVI (Melanoma), five dose): 3.13E−6
GI50 ([1]; M14 (Melanoma), five dose): 1850 nM
TGI ([1]; M14 (Melanoma), five dose): 3.79E−6
GI50 ([1]; MALME-3M (Melanoma), five dose): 1990 nM
TGI ([1]; MALME-3M (Melanoma), five dose): 5.55E−6
GI50 [1, 15]: 2310 nM
TGI [1, 15]: >1.00E−4
GI50 [1, 16]: 2330 nM
TGI [1, 16]: 7.92E−6
GI50 [1, 17]: 3020 nM
TGI [1, 17]: >1.00E−4
GI50 [1, 18]: 1930 nM
TGI [1, 18]: 3.93E−6
GI50 ([1]; MOLT-4 (Leukemia), five dose): 2490 nM
TGI ([1]; MOLT-4 (Leukemia), five dose): >1.00E−4
GI50 [1, 19]: 2010 nM
TGI [1, 19]: 4.85E−6
GI50 ([1]; NCI-H226 (Non-small Cell Lung Cancer), five dose): 2350 nM
GI50 [1, 20]: 4280 nM
TGI [1, 20]: >1.00E−4
GI50 [1, 21]: 2700 nM
TGI [1, 21]: 8.39E−6
GI50 [1, 22]: 1680 nM
TGI [1, 22]: 3.28E−6
GI50 [1, 23]: 2900 nM
TGI [1, 23]: >1.00E−4
GI50 [1, 24]: 2180 nM
TGI [1, 24]: 5.03E−6
GI50 [1, 25]: 2830 nM
TGI [1, 25]: >1.00E−4
GI50 [1, 26]: 2900 nM
TGI [1, 26]: >1.00E−4
GI50 [1, 27]: 2630 nM
TGI [1, 27]: 7.26E−6
GI50 [1, 28]: 1860 nM
TGI [1, 28]: 4.53E−6
GI50 [1, 29]: 1740 nM
TGI [1, 29]: 3.23E−6
GI50 ([1]; SF-268 (CNS Cancer), five dose): 2770 nM
GI50 ([1]; SK-MEL-2 (Melanoma), five dose): 2190 nM
TGI ([1]; SK-MEL-2 (Melanoma), five dose): 4.74E−6
GI50 ([1]; SK-MEL-5 (Melanoma), five dose): 1860 nM
TGI ([1]; SK-MEL-5 (Melanoma), five dose): 3.73E−6
GI50 [1, 30]: 2310 nM
TGI [1, 30]: 6.08E−6
GI50 [1, 31]: 9850 nM
TGI [1, 31]: >1.00E−4
GI50 [1, 32]: 2170 nM
TGI [1, 32]: 5.06E−6
GI50 ([1]; SNB-19 (CNS Cancer), five dose): 2120 nM
TGI ([1]; SNB-19 (CNS Cancer), five dose): 5.09E−6
GI50 ([1]; SNB-75 (CNS Cancer), five dose): 2190 nM
TGI ([1]; SNB-75 (CNS Cancer), five dose): 9.75E−5
GI50 ([1]; SW-620 (Colon Cancer), five dose): 2700 nM
GI50 [1, 33]: 2890 nM
TGI [1, 33]: >1.00E−4
GI50 [1, 34]: 2460 nM
TGI [1, 34]: 6.70E−6
TGI ([1]; U251 (CNS Cancer), five dose): 3.21E−6
GI50 ([1]; UACC-62 (Melanoma), five dose): 1720 nM
TGI ([1]; UACC-62 (Melanoma), five dose): 3.94E−6
GI50 ([1]; UACC-257 (Melanoma), five dose): 3700 nM
TGI ([1]; UACC-257 (Melanoma), five dose): >1.00E−4
GI50 [1, 35]: 1340 nM
TGI [1, 35]: 2.86E−6
CC50 ([1]; read-out: LC50, 786-0 (Renal Cancer), five dose): 5840 nM
CC50 ([1]; read-out: LC50, A498 (Renal Cancer), five dose): > 100000 nM
CC50 ([1]; read-out: LC50, A549/ATCC (Non-small Cell Lung Cancer), five dose): > 100000 nM
CC50 ([1]; read-out: LC50, BT-549 (Breast Cancer), five dose): 5800 nM
CC50 ([1]; read-out: LC50, CAKI-1 (Renal Cancer), five dose): > 100000 nM
CC50 ([1]; read-out: LC50, CCRF-CEM (Leukemia), five dose): > 100000 nM
CC50 ([1]; read-out: LC50, COLO 205 (Colon Cancer), five dose): > 100000 nM
CC50 ([1]; read-out: LC50, DU-145 (Prostate Cancer), five dose): > 100000 nM
CC50 ([1]; read-out: LC50, EKVX (Non-small Cell Lung Cancer), five dose): > 100000 nM
CC50 ([1]; read-out: LC50, HCT-15 (Colon Cancer), five dose): > 100000 nM
CC50 ([1]; read-out: LC50, HCT-116 (Colon Cancer), five dose): 5460 nM
CC50 ([1]; read-out: LC50, HL-60(TB) (Leukemia), five dose): > 100000 nM
CC50 ([1]; read-out: LC50, HOP-62 (Non-small Cell Lung Cancer), five dose): > 100000 nM
CC50 ([1]; read-out: LC50, HOP-92 (Non-small Cell Lung Cancer), five dose): 8680 nM
CC50 ([1]; read-out: LC50, HT29 (Colon Cancer), five dose): > 100000 nM
CC50 ([1]; read-out: LC50, IGROV1 (Ovarian Cancer), five dose): > 100000 nM
CC50 ([1]; read-out: LC50, K-562 (Leukemia), five dose): > 100000 nM
CC50 ([1]; read-out: LC50, KM12 (Colon Cancer), five dose): ≥ 100000 nM
CC50 ([1]; read-out: LC50, LOX IMVI (Melanoma), five dose): 5960 nM
CC50 ([1]; read-out: LC50, MALME-3M (Melanoma), five dose): > 100000 nM
CC50 ([1]; read-out: LC50, MCF7 (Breast Cancer), five dose): > 100000 nM
CC50 ([1]; read-out: LC50, MDA-MB-231/ATCC (Breast Cancer), five dose): > 100000 nM
CC50 ([1]; read-out: LC50, MDA-MB-435 (Melanoma), five dose): > 100000 nM
CC50 ([1]; read-out: LC50, MDA-MB-468 (Breast Cancer), five dose): 8010 nM
CC50 ([1]; read-out: LC50, MOLT-4 (Leukemia), five dose): > 100000 nM
CC50 ([1]; read-out: LC50, NCI-H23 (Non-small Cell Lung Cancer), five dose): > 100000 nM
CC50 ([1]; read-out: LC50, NCI-H226 (Non-small Cell Lung Cancer), five dose): > 100000 nM
CC50 ([1]; read-out: LC50, NCI-H460 (Non-small Cell Lung Cancer), five dose): > 100000 nM
CC50 ([1]; read-out: LC50, NCI-H522 (Non-small Cell Lung Cancer), five dose): 6430 nM
CC50 ([1]; read-out: LC50, NCI/ADR-RES (Ovarian Cancer), five dose): > 100000 nM
CC50 ([1]; read-out: LC50, OVCAR-3 (Ovarian Cancer), five dose): 38200 nM
CC50 ([1]; read-out: LC50, OVCAR-4 (Ovarian Cancer), five dose): > 100000 nM
CC50 ([1]; read-out: LC50, OVCAR-5 (Ovarian Cancer), five dose): > 100000 nM
CC50 ([1]; read-out: LC50, OVCAR-8 (Ovarian Cancer), five dose): > 100000 nM
CC50 ([1]; read-out: LC50, RXF 393 (Renal Cancer), five dose): 6010 nM
CC50 ([1]; read-out: LC50, SF-268 (CNS Cancer), five dose): > 100000 nM
CC50 ([1]; read-out: LC50, SK-MEL-2 (Melanoma), five dose): 22700 nM
CC50 ([1]; read-out: LC50, SK-MEL-5 (Melanoma), five dose): 7470 nM
CC50 ([1]; read-out: LC50, SK-MEL-28 (Melanoma), five dose): > 100000 nM
CC50 ([1]; read-out: LC50, SK-OV-3 (Ovarian Cancer), five dose): > 100000 nM
CC50 ([1]; read-out: LC50, SN12C (Renal Cancer), five dose): > 100000 nM
CC50 ([1]; read-out: LC50, SNB-19 (CNS Cancer), five dose): > 100000 nM
CC50 ([1]; read-out: LC50, SNB-75 (CNS Cancer), five dose): > 100000 nM
CC50 ([1]; read-out: LC50, SW-620 (Colon Cancer), five dose): > 100000 nM
CC50 ([1]; read-out: LC50, T-47D (Breast Cancer), five dose): > 100000 nM
CC50 ([1]; read-out: LC50, TK-10 (Renal Cancer), five dose): > 100000 nM
CC50 ([1]; read-out: LC50, U251 (CNS Cancer), five dose): 6100 nM
CC50 ([1]; read-out: LC50, UACC-62 (Melanoma), five dose): 9020 nM
CC50 ([1]; read-out: LC50, UACC-257 (Melanoma), five dose): > 100000 nM
CC50 ([1]; read-out: LC50, UO-31 (Renal Cancer), five dose): 6120 nM
GI50 (glioblastoma (SF-295)): 1810 nM
TGI (glioblastoma (SF-295)): 4.10E−6
